{
  "source": "patent US20250340848A1",
  "about": "“METHODS FOR CHEMICAL REPROGRAMMING AND PLURIPOTENT STEM CELLS” (Peking University, priority 2022, published 2025)",
  "tested_on": "hADSCs",
  "assay": "Three-stage conversion of hADSCs into hCiPSCs (methods of EXAMPLE 1), numbers of hCiPSC colonies",
  "type": "cell-based, human",
  "source_text": "FIG. 1 illustrates a schematic of an exemplary method for converting human somatic cells into pluripotent stem cells. The method has 3 stages. During any of the 3 stages, any cell can proliferate and give rise to progeny cells. In stage 1, a first population of cells comprising somatic cells are contacted with a first composition for about 4-12 days. The first population of cells can comprise somatic cells (e.g., fibroblasts or primary human adult adipose derived mesenchymal stromal cells (hADSCs)). During and/or subsequent to contacting the first composition, at least a subset of the cells of the first population of cells or the progenies thereof are converted into a second population of cells. The second population of cells can comprise epithelial-like cells. In stage 2, the second population of cells or the progenies thereof are then contacted with a second composition for about 4-16 days. During and/or subsequent to contacting the second composition, at least a subset of the cells of the second population of cells or the progenies thereof are converted into a third population of cells. The third population of cells can comprise intermediate plastic state cells. In stage 3, the third population of cells or the progenies thereof are contacted with a third composition for about 6-12 days. During and/or subsequent to contacting the third composition, at least a subset of the cells of the third population of cells or the progenies thereof are converted into a fourth population of cells.\nFIG. 2 illustrates a schematic of an exemplary method for converting human fibroblasts into pluripotent stem cells. The method can comprise 3 stages. During any of the 3 stages, any cell can proliferate and give rise to progeny cells. In stage 1, a first population of cells comprising fibroblasts is contacted with a first composition for about 8-10 days. During and/or subsequent to contacting the first composition, at least a subset of the cells of the first population of cells or the progenies thereof are converted into a second population of cells. The second population of cells can comprise epithelial-like cells. The epithelial-like cells express an increased amount of LIN28A, relative to the first population of cells or their progenies. In stage 2, the second population of cells or the progenies thereof are then contacted with a second composition for about 12-16 days. During and/or subsequent to contacting the second composition, at least a subset of the cells of the second population of cells or the progenies thereof are converted into a third population of cells. The third population of cells can comprise intermediate plastic state cells. The intermediate plastic state cells express both SALL4 and LIN28A. In stage 3, the third population of cells or the progenies thereof are contacted with a third composition for about 8-10 days. During and/or subsequent to contacting the third composition, at least a subset of the cells of the third population of cells or the progenies thereof are converted into a fourth population of cells. […] The second conversion medium can then be removed from the cells. […] The third stage 3 medium may allow the pluripotent stem cells or the progenies thereof to proliferate.\nIn one experiment, when converting hCiPSCs from somatic cell (e.g., hADSCs), hypoxia with 5% O2 was used in stage 1 conversion. After stage 1 conversion, cells were incubated with 21% O2. The induction medium was changed every 3-4 days. hADSCs were seeded at a density of 1×10^4 cells per well of a 12-well plate in 15% FBS-DMEM medium and would be changed into stage 1 conversion medium the next day. For stage 1 conversion, single layer epithelial-like cells induced from hADSCs would emerge at day 4-6 and approach 100% confluence at day 8-12. Then the medium was changed into stage 2 conversion medium. […]",
  "key": {"[1]": {"settings": "factor removed from the stage 3 conversion medium, FIG. 19"}, "[2]": {"settings": "factor removed from the stage 2 conversion medium, FIG. 17"}, "[3]": {"settings": "various combinations supplemented to stage 1 conversion medium comprising CHIR99021, 616452, TTNPB and AKT Kinase Inhibitor, FIG. 5"}, "[4]": {"settings": "factor removed from the stage 1 conversion medium, FIG. 4"}},
  "data": [
    {"smiles": "CCCC(CCC)C(=O)O", "note": "[VPA, valproic acid]", "values": [
      {"measurement": "numbers of converted hCiPSCs", "setting": "[1]", "value": "minimal numbers of converted hCiPSCs"}
    ]},
    {"smiles": "COc1ccc(CCc2nc3cc(-c4c(C)noc4C)ccc3n2C[C@H](C)N2CCOCC2)cc1Cl", "note": "[SGC-CBP30, 2-[2-(3-chloro-4-methoxyphenyl)ethyl]-5-(3,5-dimethyl-4-isoxazolyl)-1-[(2S)-2-(4-morpholinyl)propyl]-1H-benzimidazole]", "values": [
      {"measurement": "numbers of converted hCiPSCs", "setting": "[2]", "value": "minimal numbers of converted hCiPSCs"}
    ]},
    {"smiles": "CNC1CCC(N(Cc2cccc(-c3ccncc3)c2)C(=O)c2sc3ccccc3c2Cl)CC1.Cl", "note": "(stereo not drawn) [SAG, 3-chloro-N-[4-(methylamino)cyclohexyl]-N-[(3-pyridin-4-ylphenyl)methyl]-1-benzothiophene-2-carboxamide;hydrochloride]", "values": [
      {"measurement": "numbers of converted hCiPSCs", "setting": "[3]", "value": "significantly increase the numbers of converted hCiPSCs"}
    ]},
    {"smiles": "Cc1cc(NC(=O)c2cccc(NC(=O)/C=C/CN(C)C)c2)ccc1Nc1nccc(-c2cccnc2)n1", "note": "[JNKIN8, 3-[[(E)-4-(dimethylamino)but-2-enoyl]amino]-N-[3-methyl-4-[(4-pyridin-3-ylpyrimidin-2-yl)amino]phenyl]benzamide]", "values": [
      {"measurement": "numbers of converted hCiPSCs", "setting": "[2]", "value": "minimal numbers of converted hCiPSCs"}
    ]},
    {"smiles": "CC(C)N(C[C@H]1O[C@@H](n2cnc3c(N)ncnc32)[C@H](O)[C@@H]1O)[C@H]1C[C@@H](CCc2nc3cc(C(C)(C)C)ccc3[nH]2)C1", "note": "[EPZ5676, (2R,3R,4S,5R)-2-(6-amino-9H-purin-9-yl)-5-((((1r,3S)-3-(2-(5-(tert-butyl)-1H-benzo[d]imidazol-2-yl)ethyl)cyclobutyl)(isopropyl)amino)methyl)tetrahydrofuran-3,4-diol]", "values": [
      {"measurement": "numbers of converted hCiPSCs", "setting": "[2]", "value": "reduced the numbers of converted hCiPSCs"},
      {"measurement": "numbers of converted hCiPSCs", "setting": "[3]", "value": "significantly increase the numbers of converted hCiPSCs"}
    ]},
    {"smiles": "Nc1nccc2c1ncn2[C@@H]1C=C(CO)[C@@H](O)[C@H]1O", "note": "[DZNep, (1S,2R,5R)-5-(4-Amino-1H-imidazo[4,5-c]pyridin-1-yl)-3-(hydroxymethyl)-3-cyclopentene-1,2-diol]", "values": [
      {"measurement": "numbers of converted hCiPSCs", "setting": "[2]", "value": "minimal numbers of converted hCiPSCs"},
      {"measurement": "numbers of converted hCiPSCs", "setting": "[3]", "value": "significantly increase the numbers of converted hCiPSCs"}
    ]},
    {"smiles": "CC(=O)N1CCN([C@H]2CCC[C@@H](NC(=O)c3cc4c(F)ccc(C)c4[nH]3)C2)CC1.O=C(O)C(F)(F)F", "note": "[SETD2-IN-1, N-[(1R,3S)-3-(4-acetylpiperazin-1-yl)cyclohexyl]-4-fluoro-7-methyl-1H-indole-2-carboxamide;2,2,2-trifluoroacetic acid]", "values": [
      {"measurement": "numbers of converted hCiPSCs", "setting": "supplemented to the stage 1 conversion medium, FIG. 6", "value": "significantly increased the numbers of converted hCiPSCs"}
    ]},
    {"smiles": "Nc1ncnc2c1c(I)cn2[C@@H]1O[C@H](CO)[C@@H](O)[C@H]1O", "note": "[5-ITU, (2R,3R,4S,5R)-2-(4-amino-5-iodopyrrolo[2,3-d]pyrimidin-7-yl)-5-(hydroxymethyl)oxolane-3,4-diol]", "values": [
      {"measurement": "increase of the numbers of converted hCiPSCs", "setting": "added to the stage 2 conversion medium, relative to medium without it, FIGS. 7A-7B", "value": "more than 5 fold"},
      {"measurement": "numbers of converted hCiPSCs", "setting": "[2]", "value": "minimal numbers of converted hCiPSCs"}
    ]},
    {"smiles": "N#CC[C@H](C1CCCC1)n1cc(-c2ncnc3[nH]ccc23)cn1", "note": "[Ruxolitinib, (3R)-3-cyclopentyl-3-[4-(7H-pyrrolo[2,3-d]pyrimidin-4-yl)pyrazol-1-yl]propanenitrile]", "values": [
      {"measurement": "numbers of converted hCiPSCs", "setting": "[3]", "value": "significantly increase the numbers of converted hCiPSCs"}
    ]},
    {"smiles": "O=C(O)c1ccc2c(c1)nc(Nc1cccc(Cl)c1)c1ccncc12", "note": "[CX-4945, 5-(3-chloroanilino)benzo[c][2,6]naphthyridine-8-carboxylic acid]", "values": [
      {"measurement": "reprogramming efficiency", "setting": "AKTi and CX4945 included in the stage 2 conversion medium (Base), FIG. 18", "value": "significantly improved the reprogramming efficiency"}
    ]},
    {"smiles": "C/C(=C\\c1ccc(C(=O)O)cc1)c1ccc2c(c1)C(C)(C)CCC2(C)C", "note": "[TTNPB, 4-[(E)-2-(5,6,7,8-Tetrahydro-5,5,8,8-tetramethyl-2-naphthalenyl)-1-propenyl]benzoic acid]", "values": [
      {"measurement": "numbers of converted hCiPSCs", "setting": "[4]", "value": "minimal numbers of converted hCiPSCs"},
      {"measurement": "numbers of converted hCiPSCs", "setting": "[2]", "value": "minimal numbers of converted hCiPSCs"}
    ]},
    {"smiles": "Cc1cccc(-c2n[nH]cc2-c2ccc3ncccc3n2)n1", "note": "[compound 616452, 2-(3-(6-Methylpyridin-2-yl)-1H-pyrazol-4-yl)-1,5-naphthyridine]", "values": [
      {"measurement": "numbers of converted hCiPSCs", "setting": "[4]", "value": "minimal numbers of converted hCiPSCs"},
      {"measurement": "numbers of converted hCiPSCs", "setting": "[2]", "value": "minimal numbers of converted hCiPSCs"}
    ]},
    {"smiles": "O=C(NOC[C@H](O)CO)c1ccc(F)c(F)c1Nc1ccc(I)cc1F", "note": "[PD0325901]", "values": [
      {"measurement": "numbers of converted hCiPSCs", "setting": "[1]", "value": "minimal numbers of converted hCiPSCs"}
    ]},
    {"smiles": "CN(C)CCOc1ccc(-c2nc(-c3ccc4c(c3)CCC4=NO)c(-c3ccncc3)[nH]2)cc1", "note": "[SB590885, 5-[2-[4-[2-(Dimethylamino)ethoxy]phenyl]-5-(4-pyridinyl)-1H-imidazol-4-yl]-2,3-dihydro-1H-inden-1-one oxime]", "values": [
      {"measurement": "numbers of converted hCiPSCs", "setting": "[1]", "value": "minimal numbers of converted hCiPSCs"}
    ]},
    {"smiles": "Cc1cnc(-c2cnc(NCCNc3ccc(C#N)cn3)nc2-c2ccc(Cl)cc2Cl)[nH]1", "note": "[CHIR99021, 6-[[2-[[4-(2,4-Dichlorophenyl)-5-(5-methyl-1H-imidazol-2-yl)-2-pyrimidinyl]amino]ethyl]amino]-3-pyridinecarbonitrile]", "values": [
      {"measurement": "numbers of converted hCiPSCs", "setting": "[4]", "value": "minimal numbers of converted hCiPSCs"},
      {"measurement": "numbers of converted hCiPSCs", "setting": "[2]", "value": "minimal numbers of converted hCiPSCs"}
    ]}
  ]
}
